ChEMBL document CHEMBL4507319 (2021)

Assays:
[1] = biological target: Leucine-rich repeat serine/threonine-protein kinase 2 (Homo sapiens) (UniProt Q5S007); conditions: Compound concentration 1000.0 nM
[2] = biological target: Tyrosine-protein kinase JAK1 (Homo sapiens) (UniProt P23458); conditions: Compound concentration 1000.0 nM
[3] = test system: Epidermal growth factor receptor (Homo sapiens), P00533 [UNDEFINED MUTATION]; conditions: Compound concentration 1000.0 nM
[4] = biological target: Mitogen-activated protein kinase kinase kinase 9 (Homo sapiens) (UniProt P80192); conditions: Compound concentration 1000.0 nM
[5] = species: Rattus norvegicus; conditions: Compound concentration 10.0 uM
[6] = biological target: Protein kinase C iota type (Homo sapiens) (UniProt P41743); conditions: Compound concentration 1000.0 nM
Sequence of Protein kinase C iota type (Homo sapiens) (P41743 whole entry): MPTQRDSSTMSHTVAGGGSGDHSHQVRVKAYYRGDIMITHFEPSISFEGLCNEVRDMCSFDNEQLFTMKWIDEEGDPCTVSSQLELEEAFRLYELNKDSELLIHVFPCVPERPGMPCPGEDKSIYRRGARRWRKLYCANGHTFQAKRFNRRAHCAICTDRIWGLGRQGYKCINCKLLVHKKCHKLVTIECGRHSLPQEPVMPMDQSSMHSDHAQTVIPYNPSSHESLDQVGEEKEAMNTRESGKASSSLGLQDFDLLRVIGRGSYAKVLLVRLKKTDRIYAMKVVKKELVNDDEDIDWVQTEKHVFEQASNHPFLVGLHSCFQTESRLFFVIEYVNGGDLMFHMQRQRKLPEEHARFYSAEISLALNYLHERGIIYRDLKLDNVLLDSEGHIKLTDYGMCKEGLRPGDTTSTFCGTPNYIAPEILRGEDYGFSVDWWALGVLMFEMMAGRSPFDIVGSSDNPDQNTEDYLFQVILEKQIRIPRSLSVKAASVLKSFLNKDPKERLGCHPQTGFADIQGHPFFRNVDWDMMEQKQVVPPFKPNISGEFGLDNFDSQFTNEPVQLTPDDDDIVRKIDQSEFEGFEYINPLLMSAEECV

[7] = biological target: Serine/threonine-protein kinase Nek6 (Homo sapiens) (UniProt Q9HC98); conditions: Compound concentration 1000.0 nM
Sequence of Serine/threonine-protein kinase Nek6 (Homo sapiens) (Q9HC98 whole entry): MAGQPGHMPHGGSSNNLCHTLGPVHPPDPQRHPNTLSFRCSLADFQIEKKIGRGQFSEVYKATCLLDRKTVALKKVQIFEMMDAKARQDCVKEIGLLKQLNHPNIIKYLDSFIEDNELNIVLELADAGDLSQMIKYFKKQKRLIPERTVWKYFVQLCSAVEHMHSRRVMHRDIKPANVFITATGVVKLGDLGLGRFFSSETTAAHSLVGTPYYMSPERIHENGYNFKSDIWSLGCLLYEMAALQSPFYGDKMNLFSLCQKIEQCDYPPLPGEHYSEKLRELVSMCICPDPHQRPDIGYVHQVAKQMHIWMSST

[8] = biological target: Serine/threonine-protein kinase Nek7 (Homo sapiens) (UniProt Q8TDX7); conditions: Compound concentration 1000.0 nM
Sequence of Serine/threonine-protein kinase Nek7 (Homo sapiens) (Q8TDX7 whole entry, looked up): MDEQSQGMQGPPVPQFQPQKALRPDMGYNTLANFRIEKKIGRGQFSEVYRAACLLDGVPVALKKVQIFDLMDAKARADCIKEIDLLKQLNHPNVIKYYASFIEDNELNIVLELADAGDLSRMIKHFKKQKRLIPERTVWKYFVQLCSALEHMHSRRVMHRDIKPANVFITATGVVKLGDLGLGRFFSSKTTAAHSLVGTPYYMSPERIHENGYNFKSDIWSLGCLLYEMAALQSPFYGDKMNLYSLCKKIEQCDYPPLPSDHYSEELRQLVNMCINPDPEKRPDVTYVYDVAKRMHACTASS

[9] = biological target: Serine/threonine-protein kinase PRP4 homolog (Homo sapiens) (UniProt Q13523); conditions: Compound concentration 1000.0 nM
Sequence of Serine/threonine-protein kinase PRP4 homolog (Homo sapiens) (Q13523 whole entry): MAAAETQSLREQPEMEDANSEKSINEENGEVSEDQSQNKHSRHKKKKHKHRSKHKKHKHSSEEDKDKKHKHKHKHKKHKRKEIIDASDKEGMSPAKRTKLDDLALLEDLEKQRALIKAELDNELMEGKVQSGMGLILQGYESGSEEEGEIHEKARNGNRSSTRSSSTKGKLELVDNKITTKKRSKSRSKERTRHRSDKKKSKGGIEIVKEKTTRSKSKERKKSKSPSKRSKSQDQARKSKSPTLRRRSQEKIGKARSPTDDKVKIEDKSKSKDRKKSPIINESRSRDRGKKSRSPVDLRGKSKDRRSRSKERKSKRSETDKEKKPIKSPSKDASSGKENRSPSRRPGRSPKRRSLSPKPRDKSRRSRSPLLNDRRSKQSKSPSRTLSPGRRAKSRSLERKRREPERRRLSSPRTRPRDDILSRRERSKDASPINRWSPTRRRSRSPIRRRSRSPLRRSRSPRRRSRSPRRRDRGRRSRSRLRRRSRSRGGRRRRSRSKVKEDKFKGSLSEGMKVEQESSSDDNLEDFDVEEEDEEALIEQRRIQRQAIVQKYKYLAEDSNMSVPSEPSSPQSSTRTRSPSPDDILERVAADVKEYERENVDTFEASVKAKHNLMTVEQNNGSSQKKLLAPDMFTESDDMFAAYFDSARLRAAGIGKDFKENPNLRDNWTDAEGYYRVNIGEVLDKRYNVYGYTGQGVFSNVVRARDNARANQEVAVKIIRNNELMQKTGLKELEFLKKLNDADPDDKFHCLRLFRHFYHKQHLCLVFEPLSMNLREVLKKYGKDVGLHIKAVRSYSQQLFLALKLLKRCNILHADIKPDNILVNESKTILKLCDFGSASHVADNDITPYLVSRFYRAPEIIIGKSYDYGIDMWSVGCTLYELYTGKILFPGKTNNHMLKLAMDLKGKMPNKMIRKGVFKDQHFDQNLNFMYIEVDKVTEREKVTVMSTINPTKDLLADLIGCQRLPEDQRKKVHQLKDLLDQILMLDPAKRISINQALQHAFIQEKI

[10] = biological target: Serine/threonine-protein kinase mTOR (Homo sapiens) (UniProt P42345); conditions: Compound concentration 1000.0 nM
[11] = biological target: Insulin receptor-related protein (Homo sapiens) (UniProt P14616); conditions: Compound concentration 1000.0 nM
Sequence of Insulin receptor-related protein (Homo sapiens) (P14616 27-742 limits assumed): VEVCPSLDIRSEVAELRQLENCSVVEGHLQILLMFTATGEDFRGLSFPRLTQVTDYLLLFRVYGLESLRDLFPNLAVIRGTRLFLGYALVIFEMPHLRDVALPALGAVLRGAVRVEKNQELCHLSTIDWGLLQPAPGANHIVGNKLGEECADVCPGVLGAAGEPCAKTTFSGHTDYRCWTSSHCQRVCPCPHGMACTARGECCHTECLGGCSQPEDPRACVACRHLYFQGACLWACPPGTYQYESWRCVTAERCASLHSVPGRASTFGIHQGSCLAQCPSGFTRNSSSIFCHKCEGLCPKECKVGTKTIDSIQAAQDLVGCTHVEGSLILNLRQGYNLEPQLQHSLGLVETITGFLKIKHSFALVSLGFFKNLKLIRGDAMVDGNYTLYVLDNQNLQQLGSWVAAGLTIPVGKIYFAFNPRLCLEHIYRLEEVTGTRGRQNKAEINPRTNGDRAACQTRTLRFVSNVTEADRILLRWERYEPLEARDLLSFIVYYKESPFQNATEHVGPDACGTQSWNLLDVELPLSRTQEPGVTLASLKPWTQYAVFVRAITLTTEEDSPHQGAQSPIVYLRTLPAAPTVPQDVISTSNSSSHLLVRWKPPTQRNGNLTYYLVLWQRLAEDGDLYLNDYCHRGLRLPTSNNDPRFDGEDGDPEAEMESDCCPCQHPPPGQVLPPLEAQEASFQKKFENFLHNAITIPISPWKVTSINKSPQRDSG
Sequence of Insulin receptor-related protein (Homo sapiens) (P14616 747-1297 limits assumed): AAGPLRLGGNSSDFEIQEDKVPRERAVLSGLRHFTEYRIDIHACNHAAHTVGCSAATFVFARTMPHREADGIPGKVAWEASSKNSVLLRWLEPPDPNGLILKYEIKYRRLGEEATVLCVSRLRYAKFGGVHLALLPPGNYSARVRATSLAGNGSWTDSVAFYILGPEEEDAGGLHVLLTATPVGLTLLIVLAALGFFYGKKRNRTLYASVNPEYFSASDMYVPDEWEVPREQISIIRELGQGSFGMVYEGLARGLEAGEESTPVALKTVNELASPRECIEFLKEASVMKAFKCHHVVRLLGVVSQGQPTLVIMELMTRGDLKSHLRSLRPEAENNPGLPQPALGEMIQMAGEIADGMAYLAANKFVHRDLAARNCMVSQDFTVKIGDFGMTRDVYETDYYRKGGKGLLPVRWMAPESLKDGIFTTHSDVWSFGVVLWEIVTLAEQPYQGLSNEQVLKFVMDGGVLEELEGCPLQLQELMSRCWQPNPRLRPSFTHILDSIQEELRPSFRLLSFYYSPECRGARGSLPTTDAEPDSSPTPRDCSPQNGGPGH

[12] = test system: Receptor-type tyrosine-protein kinase FLT3 (Homo sapiens), P36888 [D835H]; conditions: Compound concentration 1000.0 nM
[13] = biological target: Interleukin-1 receptor-associated kinase 3 (Homo sapiens) (UniProt Q9Y616); conditions: Compound concentration 1000.0 nM
[14] = biological target: Cyclin-dependent kinase 14 (Homo sapiens) (UniProt O94921); conditions: Compound concentration 1000.0 nM
[15] = biological target: Ephrin type-A receptor 2 (Homo sapiens) (UniProt P29317); conditions: Compound concentration 1000.0 nM
[16] = biological target: Cyclin-dependent kinase 4 (Homo sapiens) (UniProt P11802); conditions: Compound concentration 1000.0 nM
[17] = biological target: Phosphatidylinositol 3-kinase catalytic subunit type 3 (Homo sapiens) (UniProt Q8NEB9); conditions: Compound concentration 1000.0 nM
[18] = biological target: Mitogen-activated protein kinase kinase kinase kinase 4 (Homo sapiens) (UniProt O95819); conditions: Compound concentration 1000.0 nM
[19] = biological target: Mitogen-activated protein kinase kinase kinase kinase 2 (Homo sapiens) (UniProt Q12851); conditions: Compound concentration 1000.0 nM
[20] = biological target: T1, Myosin-IIIb (Homo sapiens) (UniProt Q8WXR4); conditions: Compound concentration 1000.0 nM
T1 sequence (whole entry): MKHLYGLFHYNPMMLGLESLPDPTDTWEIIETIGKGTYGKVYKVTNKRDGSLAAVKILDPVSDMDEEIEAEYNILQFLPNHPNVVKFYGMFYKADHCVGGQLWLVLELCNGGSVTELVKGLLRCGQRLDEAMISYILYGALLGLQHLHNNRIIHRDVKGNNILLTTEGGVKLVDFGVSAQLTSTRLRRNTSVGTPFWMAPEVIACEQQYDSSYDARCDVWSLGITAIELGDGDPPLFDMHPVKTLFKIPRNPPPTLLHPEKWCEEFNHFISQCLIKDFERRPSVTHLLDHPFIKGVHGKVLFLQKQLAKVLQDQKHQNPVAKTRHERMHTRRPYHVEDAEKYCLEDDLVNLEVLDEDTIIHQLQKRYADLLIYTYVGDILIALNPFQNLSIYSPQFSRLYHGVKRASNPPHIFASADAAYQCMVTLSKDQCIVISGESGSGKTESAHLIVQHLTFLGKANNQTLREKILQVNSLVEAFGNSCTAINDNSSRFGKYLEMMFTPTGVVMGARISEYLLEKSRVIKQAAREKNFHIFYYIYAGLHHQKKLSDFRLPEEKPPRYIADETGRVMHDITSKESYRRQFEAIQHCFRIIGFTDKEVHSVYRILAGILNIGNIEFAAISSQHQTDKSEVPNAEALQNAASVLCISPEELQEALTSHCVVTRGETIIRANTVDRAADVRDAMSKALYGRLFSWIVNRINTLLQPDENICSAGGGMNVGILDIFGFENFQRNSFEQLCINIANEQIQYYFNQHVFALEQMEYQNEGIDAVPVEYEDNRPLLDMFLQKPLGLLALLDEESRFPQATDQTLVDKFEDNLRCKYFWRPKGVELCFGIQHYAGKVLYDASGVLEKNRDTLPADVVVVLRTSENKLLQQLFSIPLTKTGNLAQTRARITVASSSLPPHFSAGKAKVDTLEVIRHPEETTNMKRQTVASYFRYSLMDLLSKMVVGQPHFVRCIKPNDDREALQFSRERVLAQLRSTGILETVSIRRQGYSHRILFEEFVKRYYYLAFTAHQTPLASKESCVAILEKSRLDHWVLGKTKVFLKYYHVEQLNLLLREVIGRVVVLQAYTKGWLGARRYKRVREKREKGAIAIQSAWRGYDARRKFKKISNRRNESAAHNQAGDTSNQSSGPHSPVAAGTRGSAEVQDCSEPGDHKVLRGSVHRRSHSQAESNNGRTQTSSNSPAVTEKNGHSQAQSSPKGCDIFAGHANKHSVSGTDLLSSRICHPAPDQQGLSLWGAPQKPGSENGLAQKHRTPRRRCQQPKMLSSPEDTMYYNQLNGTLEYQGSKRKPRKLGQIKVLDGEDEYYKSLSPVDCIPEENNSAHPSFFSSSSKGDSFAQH

[21] = biological target: Homeodomain-interacting protein kinase 1 (Homo sapiens) (UniProt Q86Z02); conditions: Compound concentration 1000.0 nM
[22] = biological target: Hormonally up-regulated neu tumor-associated kinase (Homo sapiens) (UniProt P57058); conditions: Compound concentration 1000.0 nM
[23] = biological target: Activin receptor type-1-like (Homo sapiens) (UniProt P37023); conditions: Compound concentration 1000.0 nM
Sequence of Activin receptor type-1-like (Homo sapiens) (P37023 whole entry): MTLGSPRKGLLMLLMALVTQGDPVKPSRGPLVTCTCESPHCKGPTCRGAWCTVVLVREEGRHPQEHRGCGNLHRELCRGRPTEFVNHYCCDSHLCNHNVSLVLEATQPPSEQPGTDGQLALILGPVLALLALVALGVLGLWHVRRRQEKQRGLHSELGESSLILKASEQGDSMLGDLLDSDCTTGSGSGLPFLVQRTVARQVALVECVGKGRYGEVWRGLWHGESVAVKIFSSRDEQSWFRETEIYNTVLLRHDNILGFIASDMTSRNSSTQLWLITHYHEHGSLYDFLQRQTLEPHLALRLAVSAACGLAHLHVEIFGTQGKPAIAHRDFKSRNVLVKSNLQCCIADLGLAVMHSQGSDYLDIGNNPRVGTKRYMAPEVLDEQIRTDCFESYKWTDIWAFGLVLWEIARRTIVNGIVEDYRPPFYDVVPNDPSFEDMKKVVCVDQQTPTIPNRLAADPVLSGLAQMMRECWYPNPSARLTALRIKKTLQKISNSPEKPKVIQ

[24] = biological target: Serine/threonine-protein kinase MARK2 (Homo sapiens) (UniProt Q7KZI7); conditions: Compound concentration 1000.0 nM
Sequence of Serine/threonine-protein kinase MARK2 (Homo sapiens) (Q7KZI7 whole entry): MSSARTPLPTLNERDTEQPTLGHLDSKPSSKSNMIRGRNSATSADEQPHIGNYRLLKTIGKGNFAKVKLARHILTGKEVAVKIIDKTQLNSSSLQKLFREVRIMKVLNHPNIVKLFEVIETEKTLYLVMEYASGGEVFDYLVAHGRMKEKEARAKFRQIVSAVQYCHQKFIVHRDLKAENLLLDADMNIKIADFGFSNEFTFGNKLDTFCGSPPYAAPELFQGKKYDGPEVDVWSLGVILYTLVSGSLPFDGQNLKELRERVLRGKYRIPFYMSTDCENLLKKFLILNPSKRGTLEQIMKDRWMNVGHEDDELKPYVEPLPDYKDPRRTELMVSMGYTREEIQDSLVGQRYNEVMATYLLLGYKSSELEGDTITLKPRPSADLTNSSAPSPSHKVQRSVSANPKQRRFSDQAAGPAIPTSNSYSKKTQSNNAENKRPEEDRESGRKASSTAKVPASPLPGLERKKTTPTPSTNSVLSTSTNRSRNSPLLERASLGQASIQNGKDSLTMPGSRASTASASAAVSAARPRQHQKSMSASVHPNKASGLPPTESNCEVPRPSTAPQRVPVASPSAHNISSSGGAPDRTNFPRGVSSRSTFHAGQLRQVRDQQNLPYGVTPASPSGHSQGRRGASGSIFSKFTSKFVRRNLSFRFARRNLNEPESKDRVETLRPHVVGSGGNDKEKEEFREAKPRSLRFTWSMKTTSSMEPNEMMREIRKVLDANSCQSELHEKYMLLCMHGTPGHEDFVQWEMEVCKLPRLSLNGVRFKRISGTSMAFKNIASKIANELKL

## CCc1ccccc1C(=O)Nc1n[nH]c2c(C)c(F)c(C3C(C#N)=C(C)N(C)C(C)=C3C#N)cc12 [BAY-3827]
[1]
  residual activity: 100%
[2]
  residual activity: 97%
[3]
  residual activity: 52%
[4]
  residual activity: 92%
[5]
  inhibition: 85.6%
[6]
  residual activity: 82%
[7]
  residual activity: 75%
[8]
  residual activity: 83%
[9]
  residual activity: 72%
[10]
  residual activity: 100%
[11]
  residual activity: 99%
[12]
  residual activity: 16%
[13]
  residual activity: 98%
[14]
  residual activity: 83%
[15]
  residual activity: 61%
[16]
  residual activity: 75%
[17]
  residual activity: 100%
[18]
  residual activity: 100%
[19]
  residual activity: 100%
[20]
  residual activity: 77%
[21]
  residual activity: 99%
[22]
  residual activity: 100%
[23]
  residual activity: 75%
[24]
  residual activity: 40%

## CC1=C(C#N)C(c2ccc3c(c2)c(NC(=O)c2ccccc2C)nn3C)C(C#N)=C(C)N1 [BAY-974]
[1]
  residual activity: 88%
[2]
  residual activity: 100%
[3]
  residual activity: 88%
[4]
  residual activity: 96%
[5]
  inhibition: 96.3%
[6]
  residual activity: 66%
[7]
  residual activity: 100%
[8]
  residual activity: 96%
[9]
  residual activity: 77%
[10]
  residual activity: 75%
[11]
  residual activity: 100%
[12]
  residual activity: 99%
[13]
  residual activity: 79%
[14]
  residual activity: 100%
[15]
  residual activity: 82%
[16]
  residual activity: 79%
[17]
  residual activity: 87%
[18]
  residual activity: 100%
[19]
  residual activity: 99%
[20]
  residual activity: 100%
[21]
  residual activity: 71%
[22]
  residual activity: 78%
[23]
  residual activity: 97%
[24]
  residual activity: 99%
